Columns and labels:
Androgen receptor (AR) = biological target: T1, Androgen receptor (AR) (Homo sapiens, UniProt P10275, T878A); test: Assessment of AR proteolytic activity (Western blotting of LNCap cell lysates); type: cell-based; details: 24 hours of treatment, Western blotting quantified with Image J
T1 construct: 5.5×10^5 LNCap cells were injected into each well of a 6-well plate; endogenous in cells; host or cells: LNCaP
T1 sequence (P10275 1-920 T878A): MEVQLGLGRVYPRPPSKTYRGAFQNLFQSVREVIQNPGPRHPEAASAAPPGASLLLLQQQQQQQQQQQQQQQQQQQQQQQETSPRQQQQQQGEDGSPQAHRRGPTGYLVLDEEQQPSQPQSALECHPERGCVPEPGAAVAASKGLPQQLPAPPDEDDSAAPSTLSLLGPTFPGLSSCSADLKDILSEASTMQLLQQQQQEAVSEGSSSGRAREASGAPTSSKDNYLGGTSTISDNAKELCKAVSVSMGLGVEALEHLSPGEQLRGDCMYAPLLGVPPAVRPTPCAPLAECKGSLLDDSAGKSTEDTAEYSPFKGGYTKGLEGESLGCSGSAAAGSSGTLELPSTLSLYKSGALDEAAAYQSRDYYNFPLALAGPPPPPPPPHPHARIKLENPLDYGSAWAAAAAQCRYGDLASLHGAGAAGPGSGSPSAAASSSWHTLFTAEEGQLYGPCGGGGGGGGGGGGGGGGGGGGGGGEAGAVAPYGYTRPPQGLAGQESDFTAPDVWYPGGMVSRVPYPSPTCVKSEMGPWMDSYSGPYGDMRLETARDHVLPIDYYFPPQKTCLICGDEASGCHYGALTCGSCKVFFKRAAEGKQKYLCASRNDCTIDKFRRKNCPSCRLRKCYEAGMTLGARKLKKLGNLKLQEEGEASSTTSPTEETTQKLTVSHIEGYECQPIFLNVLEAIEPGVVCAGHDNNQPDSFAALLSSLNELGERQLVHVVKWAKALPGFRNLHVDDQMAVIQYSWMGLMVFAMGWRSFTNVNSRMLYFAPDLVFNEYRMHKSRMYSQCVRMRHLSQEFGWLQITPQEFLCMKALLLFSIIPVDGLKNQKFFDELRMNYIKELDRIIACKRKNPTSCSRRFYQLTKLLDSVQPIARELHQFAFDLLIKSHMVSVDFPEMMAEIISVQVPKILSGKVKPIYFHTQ
Summary of the method: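 LNCap cells seeded at 5.5×10^5 per well and treated with compound for 24 hours. Lysates prepared in RIPA buffer (pH 7.5, with protease inhibitors). AR protein levels assessed by Western blot with densitometric quantification.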

| Compound | Degradation (1 μM treated in LNCaP, % AR remaining) (Androgen receptor (AR)) | CC50 (VCaP cells) |
| --- | --- | --- |
| CC1(C)C(NC(=O)c2ccc(C3CCN(CCOC4CCN(C(=O)C5CN(c6ccc7nnn(C8CCC(=O)NC8=O)c(=O)c7c6)C5)CC4)CC3)cc2)C(C)(C)C1Oc1ccc(C#N)c(Cl)c1 (stereo not shown) [Example 75, N-((1r,3r)-3-(3-chloro-4-cyanophenoxy)-2,2,4,4-tetramethylcyclobutyl)-4-(1-(2-((1-(1-(3-(2,6-dioxopiperidin-3-yl)-4-oxo-3,4-dihydrobenzo[d][1,2,3]triazin-6-yl)azetidine-3-carbonyl)piperidin-4-yl)oxy)ethyl)piperidin-4-yl)benzamide] | 9% | 30.1 nM |
| CC1(C)[C@H](NC(=O)c2ccc(N3CCN(CC4(O)CCN(C(=O)COc5ccc6nnn(C7CCC(=O)NC7=O)c(=O)c6c5)CC4)CC3)cc2)C(C)(C)[C@H]1Oc1ccc(C#N)c(Cl)c1 (stereo partly shown) [Example 54, N-((1r,3r)-3-(3-chloro-4-cyanophenoxy)-2,2,4,4-tetramethylcyclobutyl)-4-(4-((1-(2-((3-(2,6-dioxopiperidin-3-yl)-4-oxo-3,4-dihydrobenzo[d][1,2,3]triazin-6-yl)oxy)acetyl)-4-hydroxypiperidin-4-yl)methyl)piperazin-1-yl)benzamide] | 7.7% | 553 nM |
| [C-]#[N+]c1ccc(OC2C(C)(C)C(NC(=O)c3ccc(N4CCN(CCc5cn(-c6ccc7nnn(C8CCC(=O)NC8=O)c(=O)c7c6)nn5)CC4)cc3)C2(C)C)cc1Cl (stereo not shown) [Example 77, N-((1r,3r)-3-(3-chloro-4-isocyanophenoxy)-2,2,4,4-tetramethylcyclobutyl)-4-(4-(2-(1-(3-(2,6-dioxopiperidin-3-yl)-4-oxo-3,4-dihydrobenzo[d][1,2,3]triazin-6-yl)-1H-1,2,3-triazol-4-yl)ethyl)piperazin-1-yl)benzamide] | 74% | 46.6 nM |
| CC1(C)C(NC(=O)c2ccc(N3CCN(CCCOC4CCN(C(=O)COc5ccc6nnn(C7CCC(=O)NC7=O)c(=O)c6c5)CC4)CC3)cc2)C(C)(C)C1Oc1ccc(C#N)c(Cl)c1 (stereo not shown) [Example 38, N-((1r,3r)-3-(3-chloro-4-cyanophenoxy)-2,2,4,4-tetramethylcyclobutyl)-4-(4-(3-((1-(2-((3-(2,6-dioxopiperidin-3-yl)-4-oxo-3,4-dihydrobenzo[d][1,2,3]triazin-6-yl)oxy)acetyl)piperidin-4-yl)oxy)propyl)piperazin-1-yl)benzamide] | 27.3% | 43.2 nM |
| CC1(C)C(NC(=O)c2ccc(C#CCC3CCN(C(=O)C4CN(c5ccc6nnn(C7CCC(=O)NC7=O)c(=O)c6c5)C4)CC3)cc2)C(C)(C)C1Oc1ccc(C#N)c(Cl)c1 (stereo not shown) [Example 87, N-((1r,3r)-3-(3-chloro-4-cyanophenoxy)-2,2,4,4-tetramethylcyclobutyl)-4-(3-(1-(1-(3-(2,6-dioxopiperidin-3-yl)-4-oxo-3,4-dihydrobenzo[d][1,2,3]triazin-6-yl)azetidine-3-carbonyl)piperidin-4-yl)prop-1-yn-1-yl)benzamide] | 9% | 31.9 nM |
| CC1(C)C(NC(=O)c2ccc(C3CCN(CCOC4CCN(c5ccc6nnn(C7CCC(=O)NC7=O)c(=O)c6c5)CC4)CC3)cc2)C(C)(C)C1Oc1ccc(C#N)c(Cl)c1 (stereo not shown) [Example 76, N-((1r,3r)-3-(3-chloro-4-cyanophenoxy)-2,2,4,4-tetramethylcyclobutyl)-4-(1-(2-((1-(3-(2,6-dioxopiperidin-3-yl)-4-oxo-3,4-dihydrobenzo[d][1,2,3]triazin-6-yl)piperidin-4-yl)oxy)ethyl)piperidin-4-yl)benzamide] | 30% | 35 nM |
| CC1(C)C(NC(=O)c2ccc(N3CCN(C=C4CCN(c5ccc6nnn(C7CCC(=O)NC7=O)c(=O)c6c5)CC4)CC3)cc2)C(C)(C)C1Oc1ccc(C#N)c(Cl)c1 (stereo not shown) [Example 64, N-((1r,3r)-3-(3-chloro-4-cyanophenoxy)-2,2,4,4-tetramethylcyclobutyl)-4-(4-((1-(3-(2,6-dioxopiperidin-3-yl)-4-oxo-3,4-dihydrobenzo[d][1,2,3]triazin-6-yl)piperidin-4-ylidene)methyl)piperazin-1-yl)benzamide] | 56% | 76.2 nM |
| CC1(C)C(NC(=O)c2ccc(N3CCN(CCCOC4CCN(c5ccc6nnn(C7CCC(=O)NC7=O)c(=O)c6c5)CC4)CC3)cc2)C(C)(C)C1Oc1ccc(C#N)c(Cl)c1 (stereo not shown) [Example 39, N-((1r,3r)-3-(3-chloro-4-cyanophenoxy)-2,2,4,4-tetramethylcyclobutyl)-4-(4-(3-((1-(3-(2,6-dioxopiperidin-3-yl)-4-oxo-3,4-dihydrobenzo[d][1,2,3]triazin-6-yl)piperidin-4-yl)oxy)propyl)piperazin-1-yl)benzamide] | 2.1% | 86.6 nM |
| CC1(C)[C@H](NC(=O)c2ccc(N3CCN(CC4CCN(CC5CN(c6ccc7nnn(C8CCC(=O)NC8=O)c(=O)c7c6)C5)CC4)CC3)cc2)C(C)(C)[C@H]1Oc1ccc(C#N)c(Cl)c1 (stereo partly shown) [Example 67, N-((1r,3r)-3-(3-chloro-4-cyanophenoxy)-2,2,4,4-tetramethylcyclobutyl)-4-(4-((1-((1-(3-(2,6-dioxopiperidin-3-yl)-4-oxo-3,4-dihydrobenzo[d][1,2,3]triazin-6-yl)azetidin-3-yl)methyl)piperidin-4-yl)methyl)piperazin-1-yl)benzamide] | 88% | 106 nM |
| CC1(C)C(NC(=O)c2ccc(N3CCN(CC4CCN(CC5CCN(c6ccc7nnn(C8CCC(=O)NC8=O)c(=O)c7c6)CC5)CC4)CC3)cc2)C(C)(C)C1Oc1ccc(C#N)c(Cl)c1 (stereo not shown) [Example 70, N-((1r,3r)-3-(3-chloro-4-cyanophenoxy)-2,2,4,4-tetramethylcyclobutyl)-4-(4-((1-((1-(3-(2,6-dioxopiperidin-3-yl)-4-oxo-3,4-dihydrobenzo[d][1,2,3]triazin-6-yl)piperidin-4-yl)methyl)piperidin-4-yl)methyl)piperazin-1-yl)benzamide] | 99% | 205 nM |
| CC1(C)[C@H](NC(=O)c2ccc(N3CCN(CCCC4CCN(c5ccc6nnn(C7CCC(=O)NC7=O)c(=O)c6c5)CC4)CC3)cc2)C(C)(C)[C@H]1Oc1ccc(C#N)c(Cl)c1 (stereo partly shown) [Example 48, N-((1r,3r)-3-(3-chloro-4-cyanophenoxy)-2,2,4,4-tetramethylcyclobutyl)-4-(4-(3-(1-(3-(2,6-dioxopiperidin-3-yl)-4-oxo-3,4-dihydrobenzo[d][1,2,3]triazin-6-yl)piperidin-4-yl)propyl)piperazin-1-yl)benzamide] | 35.2% | 77 nM |
| CC1(C)C(NC(=O)c2ccc(N3CC4CC3CN4CC3CCN(c4ccc5nnn(C6CCC(=O)NC6=O)c(=O)c5c4)CC3)cc2)C(C)(C)C1Oc1ccc(C#N)c(Cl)c1 (stereo not shown) [Example 72, N-((1r,3r)-3-(3-chloro-4-cyanophenoxy)-2,2,4,4-tetramethylcyclobutyl)-4-(5-((1-(3-(2,6-dioxopiperidin-3-yl)-4-oxo-3,4-dihydrobenzo[d][1,2,3]triazin-6-yl)piperidin-4-yl)methyl)-2,5-diazabicyclo[2.2.1]heptan-2-yl)benzamide] | 92% | 263 nM |
| CC1(C)C(NC(=O)c2ccc(N3CCN(C(=O)C4CN(c5ccc6nnn(C7CCC(=O)NC7=O)c(=O)c6c5)C4)CC3)cc2)C(C)(C)C1Oc1ccc(C#N)c(Cl)c1 (stereo not shown) [Example 43, N-((1r,3r)-3-(3-chloro-4-cyanophenoxy)-2,2,4,4-tetramethylcyclobutyl)-4-(4-(1-(3-(2,6-dioxopiperidin-3-yl)-4-oxo-3,4-dihydrobenzo[d][1,2,3]triazin-6-yl)azetidine-3-carbonyl)piperazin-1-yl)benzamide] | 33.6% | 37.3 nM |
| CC1(C)C(NC(=O)c2ccc(N3CCN(C=C4CCN(C(=O)C5CN(c6ccc7nnn(C8CCC(=O)NC8=O)c(=O)c7c6)C5)CC4)CC3)cc2)C(C)(C)C1Oc1ccc(C#N)c(Cl)c1 (stereo not shown) [Example 66, N-((1r,3r)-3-(3-chloro-4-cyanophenoxy)-2,2,4,4-tetramethylcyclobutyl)-4-(4-((1-(1-(3-(2,6-dioxopiperidin-3-yl)-4-oxo-3,4-dihydrobenzo[d][1,2,3]triazin-6-yl)azetidine-3-carbonyl)piperidin-4-ylidene)methyl)piperazin-1-yl)benzamide] | 35% | 18.2 nM |

— patent US20240018123A1, “COMPOUND FOR INHIBITING OR DISINTEGRATING ANDROGEN RECEPTOR, AND PHARMACEUTICAL USE THEREOF” (KOREA RESEARCH INSTITUTE OF CHEMICAL TECHNOLOGY, priority 2020, published 2024)
